Experimental data: patent US20130317215A1, “STABLE SYNTHETIC INTERMEDIATE AND METHOD FOR MANUFACTURING SAME” (KYORIN PHARMACEUTICAL CO., LTD., priority 2010, published 2013)
Entries after “also recorded” stand apart in the source; their conditions may differ.

Key:
[1] = Change in physical properties during storage at room temperature (Test Example 1); format: physicochemical; settings: for Physical properties, after 10 weeks: sealed in a glass bottle, stored at room temperature for 10 weeks
Description: The compound (5) was sealed in a glass bottle and stored at room temperature for 10 weeks. The compound (6) was sealed in a glass bottle and stored at room temperature for 19 months.

[2] = Storage stability at room temperature, chemical purity by HPLC (Test Example 2); format: physicochemical
Protocol: The compounds (5) and (6) were each sealed in a glass bottle and stored at room temperature. At this time, the chemical purity of each compound was measured. After 6 weeks of storage and after 10 weeks of storage, the compound (5) was measured. After 19 months of storage, the compound (6) was measured. The chemical purity was represented by proportions of each compound and a degraded substance (compound (8)), calculated from area ratios measured by HPLC. HPLC measurement conditions are shown below. The chemical purity of the compound (6) was calculated on the basis of the peak of the compound (5).
Measurement wavelength: 220 nm
Column: TSKgel Octyl-80Ts, 4.6 mm I.D.×150 mm
Column temperature: 40° C.
Mobile phase A: acetonitrile
Mobile phase B: diluted phosphoric acid (1→1,000)

Question: What does the source list for `CCc1cc(OC)cc(N)c1C(=O)O` [Compound (5)]?
Answer: Physical properties, in synthesis ([1]; compound (5), before storage): WHITE POWDER; Physical properties, after 10 weeks [1]: YELLOW SEMI-SOLID; Physical properties, after 10 weeks ([1]; listed as compound (5)): the physical properties were changed; also recorded: yellow semi-solid; Proportion of the compound degraded ([2]; after 10 weeks of storage at room temperature): ≥ 50%; HPLC purity, peak Compound (5), after 6 weeks ([2]; sealed glass bottle, room temperature, 6 weeks, HPLC area ratio): 94.1%; HPLC purity, peak Compound (5), after 10 weeks ([2]; sealed glass bottle, room temperature, 10 weeks, HPLC area ratio): 38.4%
